Our source for the IC50 values is BindingDB's records for doi:10.1016/j.bmcl.2010.11.016 (Chosun University, 2011).

The structures appear in SMILES notation.

Assay [1] concerns Influenza A H9N2 virus neuraminidase. In words: Inhibition of Influenza A H9N2 virus neuraminidase activity after 2 hrs by spectrofluorometry.
Assay [2] has as its system wild type H1N1 swine influenza virus neuraminidase. Nature of the assay: Inhibition of wild type H1N1 swine influenza virus neuraminidase activity expressed in HEK293T cells after 2 hrs by spectrofluorometry.

Broadly, the IC50 is the concentration at which inhibition is half-maximal. Low values mean inhibition by little substance, high ones a need for much substance. As for `O=C(C=Cc1ccc(O)cc1)c1ccc(O)cc1O`, the IC50 came out at 37.8 µM in assay [1] and 13.6 µM in assay [2].
